The values below come from patent US20240425475A1, “COMPOUND BASED ON QUINAZOLINE-SUBSTITUTED GLUTARIMIDE SKELETON AND USE THEREOF” (GLUETACS THERAPEUTICS (SHANGHAI) CO., LTD., priority 2022, published 2024).

Molecules are shown by their SMILES.

For test [1], the system named is Human colon cancer cell: SW620. Put plainly: Half inhibitory concentration (IC50) against tumor cells, CCK-8 cell viability. The conditions noted are these: SW-620, 96 h treatment. The class given is cell-based. How it is done: (§1) The tumor cells used herein were cultured in a cell culture medium listed in table 2 at 37° C. in an incubator with 5% CO2. Prior to experimentation, all cells used were correctly identified by STR profiling, and tested negative for mycoplasma through routine screenings. [table] Determination of Half Inhibitory Concentration (IC50) of the Compounds Against Tumor Cells: IC50 values of the compounds of the present disclosure (including the compounds in Table 1, and compounds of examples 1-104) were measured using the Meilun Cell Counting Kit-8 kit from Dalian Meilun Biotech Co., Ltd. Assay details are as follows: tumor cells were seeded in a 96-well plate at a density listed in Table 3. After 24 h, 100 μL of the inoculated cells were treated with 0.5 μl of the compounds of the present disclosure (including the compounds in Table 1, and compounds of examples 1-104) at 10 different successively decreasing concentrations (starting at the highest concentration of […]; 5-fold serial dilutions). After the cells were treated with the compounds of the present disclosure for a period of time, cell viability was measured according to the instructions provided with the CCK-8 kit. DMSO served as the negative control, and corresponding commercial immunomodulatory drug Avadomide (CC-122) was used as the positive control, both of which treated the cells using the same protocol as that of the compounds of the present disclosure. The growth inhibition of the compounds of the present disclosure on cells was plotted by Prism Graphpad software, and the IC50 values of the compounds of the present disclosure were calculated therefrom. [table] We tested the activities of the compounds of the present invention (including the compounds in Table 1 and Examples 1-104 compounds) in tumor cells through a dose-dependent manner. The cells were treated with the compounds of the present invention at 10 different successively decreasing concentrations (starting at the highest concentration of 10 μM; 5-fold serial dilutions) for 72 h or 96 h, and then the cell viability determination was performed in accordance with CCK-8 reagent operating instructions.

Test [2] deals with Human diffuse large B-cell lymphoma cell line: TMD8. The test is described as above. The format is cell-based. The conditions noted are these: 96 h treatment. The procedure: as §1
The target in test [3] is human Cereblon WT GST-tagged protein (Homo sapiens (Human), UniProt Q96SW2). Kind of test: CRBN-binding affinity, CEREBLON BINDING kit (HTRF). To be noted: HTRF inhibitory activity, binding to CRBN. The source says: Determination of CRBN-Binding Affinity of Compounds
The CEREBLON BINDING kits (specification: 10,000 tests; product number: Catalog #64BDCRBNPEH; CISBIO company) was used to determine the CRBN binding ability of the compounds to be tested through a HTRF method (homogeneous time-resolved fluorescence). The specific methods are as follows: • 1. According to the instructions of the CEREBLON BINDING kits, the compounds to be tested of the present invention and lenalidomide were serially diluted using diluent #9 (1×) solution to obtain a final concentration of 2 μM for both the tested compounds and lenalidomide solution. • 2.2.5 μL of the above 2 μM of the tested compounds and lenalidomide solution, as well as the same volume of diluent #9 (1×) solution (solvent control group, Std0) were taken and added to each well of a 96-well plate, respectively. Then, 2.5 μL of (human Cereblon WT GST-tagged protein) solution was added to each well. Finally, 5 μL of the uniformly mixed thalidomide-Red reagent and GST Eu antibody working solution were added to each of the above wells. The final concentration of the tested compounds and lenalidomide in each well is 0.5 μM. • 3. The blank control wells were sequentially added with 2.5 μL of diluent #9 (1×) solution, 2.5 μL of PROTAC binding buffer, and 5 μL of uniformly mixed thalidomide-Red reagent and GST Eu antibody working solution. • 4. After sealing and incubating the solutions in the above wells at room temperature for 3 hours, the absorbance values at emission wavelengths of 620 nm and 665 nm were detected by the HTRF method using a Spark microplate reader (V3.1 SP1).
The corresponding CRBN binding inhibition rate was calculated using the following method: […]
Note: OD 665 nmcompound is the absorbance value of each well of the compounds to be tested of the present disclosure at an emission wavelength of 665 nm.
OD 620 nmcompound is the absorbance value of each well of the compounds to be tested of the present disclosure at an emission wavelength of 620 nm.
OD 665 nmcontrol is the absorbance value of the blank control well at an emission wavelength of 665 nm.
OD 620 nmcontrol is the absorbance value of the blank control well at an emission wavelength of 620 nm.
OD 665 nmstd0 is the absorbance value of the solvent control well at an emission wavelength of 665 nm.
OD 620 nmstd0 is the absorbance value of the solvent control well at an emission wavelength of 620 nm.

Test [4] concerns Human B-lymphoma cell: Ramos. Put plainly: Half inhibitory concentration (IC50) against tumor cells, CCK-8 cell viability. The conditions noted are these: 96 h treatment. The format is cell-based. The procedure: as §1
The test system of test [5] is Human Burkitt's lymphoma cell line: Daudi. The description is as above. The class given is cell-based. To be noted: 96 h treatment. How it is done:
as §1

The test system of test [6] is Human cell line: Kasumi-1. The description is as above. The class given is cell-based. The conditions noted are these: Kasumi-1 cells, 72 h treatment. The procedure:
as §1

The subject of test [7] is Human dexamethasone-resistant multiple myeloma cell line: MM.1R. The description is as above. The format is cell-based. To be noted: MM.1R cells, 72 h treatment. The procedure: as §1
In test [8] the test system is Human multiple myeloma cells: MM.1S. The description is as above. To be noted: MM1.S, MM.1S cells, 72 h treatment. The class given is cell-based. How it is done: as §1

Sequence of human Cereblon WT GST-tagged protein (Q96SW2 whole entry): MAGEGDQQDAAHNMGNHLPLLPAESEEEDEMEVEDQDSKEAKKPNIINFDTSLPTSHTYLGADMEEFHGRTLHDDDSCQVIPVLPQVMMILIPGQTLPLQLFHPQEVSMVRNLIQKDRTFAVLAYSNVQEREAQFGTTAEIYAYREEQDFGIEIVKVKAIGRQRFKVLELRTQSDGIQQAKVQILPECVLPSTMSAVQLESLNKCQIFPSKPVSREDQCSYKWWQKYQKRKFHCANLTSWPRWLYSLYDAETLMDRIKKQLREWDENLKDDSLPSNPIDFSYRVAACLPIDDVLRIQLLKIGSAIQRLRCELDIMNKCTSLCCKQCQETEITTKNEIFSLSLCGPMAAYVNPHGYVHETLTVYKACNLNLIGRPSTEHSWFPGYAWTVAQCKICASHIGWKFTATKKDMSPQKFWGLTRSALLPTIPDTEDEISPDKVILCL

For orientation: IC50 means the point on the concentration scale where inhibition reaches its midpoint. A high value points to weaker potency in that assay. Consider `Cc1nc2cccc(N3CC(C)N(CCC45CC6CC(CC(C6)C4)C5)C(C)C3)c2c(=O)n1C1CCC(=O)NC1=O` (stereo not shown) [GT-04246, 3-(5-(4-(2-((3r,5r,7r)-adamantan-1-yl)ethyl)-3,5-dimethylpiperazin-1-yl)-2-methyl-4-oxoquinazolin-3(4H)-yl)piperidine-2,6-dione], for which the IC50 in test [1] amounted to 387 nM; in test [2] it was 413 nM.

Consider `Cc1nc2cccc(SCCN3CCN(CCC45CC6CC(CC(C6)C4)C5)CC3)c2c(=O)n1C1CCC(=O)NC1=O` (stereo not shown) [GT-03305, 3-(5-((2-(4-(2-((3r,5r,7r)-adamantan-1-yl)ethyl)piperazin-1-yl)ethyl)thio)-2-methyl-4-oxoquinazolin-3(4H)-yl)piperidine-2,6-dione], for which the values for the IC50 in test [1] and in test [3] were 717 nM and 1200 nM, respectively.

On to `Cc1nc2cccc(SCCCN3CCN(C(c4ccc(Cl)cc4)c4ccc(Cl)cc4)CC3)c2c(=O)n1C1CCC(=O)NC1=O` (stereo not shown) [GT-03697, 3-(5-((3-(4-(bis(4-chlorophenyl)methyl)piperazin-1-yl)propyl)thio)-2-methyl-4-oxoquinazolin-3(4H)-yl)piperidine-2,6-dione], for which the IC50 in test [4] came out at 652 nM; in test [5], 546 nM; in test [6] it was 694 nM; in test [7], 204 nM.

For the compound `Cc1nc2cccc(NCCN3CCN(CCC45CC6CC(CC(C6)C4)C5)CC3)c2c(=O)n1C1CCC(=O)NC1=O` (stereo not shown) [GT-03301, 3-(5-((2-(4-(2-((3r,5r,7r)-adamantan-1-yl)ethyl)piperazin-1-yl)ethyl)amino)-2-methyl-4-oxoquinazolin-3(4H)-yl)piperidine-2,6-dione], the IC50 in test [4] worked out at 165 nM; in test [5], 155 nM; in test [6], 104 nM; in test [1], 35.8 nM; in test [7] it was 32.8 nM; in test [2], 186 nM. In addition, the half-inhibitory concentration (IC50) in test [8] came out at 79.6 nM; in test [3], 1720 nM.

For the compound `Cc1nc2cccc(SCCCN3CCN(CCC45CC6CC(CC(C6)C4)C5)CC3)c2c(=O)n1C1CCC(=O)NC1=O` (stereo not shown) [GT-03306, 3-(5-((3-(4-(2-((3r,5r,7r)-adamantan-1-yl)ethyl)piperazin-1-yl)propyl)thio)-2-methyl-4-oxoquinazolin-3(4H)-yl)piperidine-2,6-dione], the IC50 in test [4] stood at 89.3 nM; in test [5] it was 44.9 nM; in test [6] it was 22.3 nM; in test [1] it was 18.6 nM; in test [7] it was 12.7 nM; in test [2], 86.5 nM. Also, the IC50 was 29.3 nM in test [8] and 1570 nM in test [3].

With `Cc1nc2cccc(SCCCN3CCN(CC45CC6CC(CC(C6)C4)C5)CC3)c2c(=O)n1C1CCC(=O)NC1=O` (stereo not shown) [GT-03235, 3-(5-((3-(4-(((1s,3s)-adamantan-1-yl)methyl)piperazin-1-yl)propyl)thio)-2-methyl-4-oxoquinazolin-3(4H)-yl)piperidine-2,6-dione], the IC50 in test [4] is 398 nM; in test [3], 2400 nM.

For `Cc1nc2cccc(SCCCN3CCN(C(c4ccc(F)cc4)c4ccc(F)cc4)CC3)c2c(=O)n1C1CCC(=O)NC1=O` (stereo not shown) [GT-03387, 3-(5-((3-(4-(bis(4-fluorophenyl)methyl)piperazin-1-yl)propyl)thio)-2-methyl-4-oxoquinazolin-3(4H)-yl)piperidine-2,6-dione], the IC50 in test [4] turned out to be 490 nM; in test [5] it was 286 nM; in test [7] it was 276 nM; in test [2], 204 nM.

With `Cc1nc2cccc(N)c2c(=O)n1C1CCC(=O)NC1=O` (stereo not shown) [CC-122, Avadomide, reference compound], the IC50 in test [4] was 1330 nM; in test [5], 1650 nM; in test [6] it was greater than 10000 nM; in test [1], greater than 10000 nM; in test [7] it was 464 nM; in test [2], 890 nM. This compound returned an IC50 in test [8] of 46.9 nM.
